Activity calls are given as the source filed them. The rule behind the calls is not given here.
Key:
HL-60 = experiment: Cytotoxicity against human HL60 cells assessed as reduction in cell viability incubated for 72 hrs by MTT assay; type: functional, cell-based; details: HL-60, 72 h
OVCAR-8 [1] = experiment: Cytotoxicity against human OVCAR8 cells assessed as reduction in cell viability incubated for 72 hrs by MTT assay; type: functional, cell-based; details: OVCAR-8, 72 h
HCT-116 = experiment: Cytotoxicity against human HCT116 cells assessed as reduction in cell viability incubated for 72 hrs by MTT assay; type: functional, cell-based; details: HCT-116, 72 h
SF-295 = experiment: Cytotoxicity against human SF295 cells assessed as reduction in cell viability incubated for 72 hrs by MTT assay; type: functional, cell-based; details: SF-295, 72 h
OVCAR-8 [2] = experiment: Cell cycle arrest in human OVCAR8 cells assessed as accumulation at G2/M phase at 5 uM incubated for 24 hrs by propidium iodide staining based flow cytometry (reference value: 25.78 +/- 0.71%); type: functional
OVCAR-8 [3] = experiment: Cytotoxicity against human OVCAR8 cells assessed as reduction in cell viability at 1 to 4 uM measured upto 98 hrs by xcCELLigence RTCA analysis; type: functional, cell-based
OVCAR-8 [4] = experiment: Cell cycle arrest in human OVCAR8 cells assessed as accumulation at G2/M phase at 10 uM incubated for 24 hrs by propidium iodide staining based flow cytometry (reference value: 25.78 +/- 0.71%); type: functional
OVCAR-8 [5] = experiment: Cell cycle arrest in human OVCAR8 cells assessed as accumulation at S phase at 10 uM incubated for 24 hrs by propidium iodide staining based flow cytometry (reference value: 7.1 +/- 0.86%); type: functional
OVCAR-8 [6] = experiment: Cell cycle arrest in human OVCAR8 cells assessed as accumulation at S phase at 5 uM incubated for 24 hrs by propidium iodide staining based flow cytometry (reference value: 7.1 +/- 0.86%); type: functional
OVCAR-8 [7] = experiment: Cell cycle arrest in human OVCAR8 cells assessed as accumulation at G0/G1 phase at 5 uM incubated for 24 hrs by propidium iodide staining based flow cytometry (reference value: 67.06 +/- 1.42%); type: functional
OVCAR-8 [8] = experiment: Cell cycle arrest in human OVCAR8 cells assessed as accumulation at G0/G1 phase at 10 uM incubated for 24 hrs by propidium iodide staining based flow cytometry (reference value: 67.06 +/- 1.42%); type: functional
OVCAR-8 [9] = experiment: Induction of apoptosis in human OVCAR8 cells assessed as nuclear fragmentation at 0.03 uM incubated for 48 hrs by hematoxylin and eosin staining based […] analysis; type: functional, cell-based
OVCAR-8 [10] = experiment: Cell cycle arrest in human OVCAR8 cells assessed as accumulation at G2/M phase at 0.05 uM incubated for 24 hrs by propidium iodide staining based flow cytometry (reference value: 25.78 +/- 0.71%); type: functional
OVCAR-8 [11] = experiment: Cell cycle arrest in human OVCAR8 cells assessed as accumulation at S phase at 0.05 uM incubated for 24 hrs by propidium iodide staining based flow cytometry (reference value: 7.1 +/- 0.86%); type: functional
OVCAR-8 [12] = experiment: Cell cycle arrest in human OVCAR8 cells assessed as accumulation at G0/G1 phase at 0.05 uM incubated for 24 hrs by propidium iodide staining based flow cytometry (reference value: 67.06 +/- 1.42%); type: functional
OVCAR-8 [13] = experiment: Induction of apoptosis in human OVCAR8 cells assessed as reduction in cell viability at 0.03 uM incubated for 48 hrs by acridine orange and ethidium bromide dye based fluorescence microscopy analysis; type: functional
OVCAR-8 [14] = experiment: Cytotoxicity against human OVCAR8 cells assessed as reduction in cell viability at 0.05 uM measured upto 98 hrs by xcCELLigence RTCA analysis; type: functional, cell-based
OVCAR-8 [15] = experiment: Induction of apoptosis in human OVCAR8 cells assessed as chromatin condensation at 0.03 uM incubated for 48 hrs by hematoxylin and eosin staining based […] analysis; type: functional, cell-based
OVCAR-8 [16] = experiment: Induction of apoptosis in human OVCAR8 cells assessed as increase in apoptotic cells at 0.03 uM incubated for 48 hrs by acridine orange and ethidium bromide dye based fluorescence microscopy analysis; type: functional, cell-based
OVCAR-8 [17] = experiment: Induction of apoptosis in human OVCAR8 cells assessed as reduction in cell volume at 0.03 uM incubated for 48 hrs by hematoxylin and eosin staining based […] analysis; type: functional
Lytechinus variegatus [18] = experiment: Antimitotic activity against sea urchin eggs assessed as inhibition of egg development at first cleavage; type: functional, organism-based
OVCAR-8 [19] = experiment: Cell cycle arrest in human OVCAR8 cells assessed as accumulation at S phase at 2.5 uM incubated for 24 hrs by propidium iodide staining based flow cytometry (reference value: 7.1 +/- 0.86%); type: functional
[20] = Cytotoxicity against human PBMC assessed as cell viability at 10 ug/ml incubated for 72 hrs by trypan blue dye based assay; details: read-out: Activity
OVCAR-8 [21] = experiment: Induction of apoptosis in human OVCAR8 cells assessed as reduction in cell viability incubated for 48 hrs by acridine orange and ethidium bromide dye based fluorescence microscopy analysis; type: functional
OVCAR-8 [22] = experiment: Induction of apoptosis in human OVCAR8 cells assessed as increase in apoptotic cells incubated for 48 hrs by acridine orange and ethidium bromide dye based fluorescence microscopy analysis; type: functional, cell-based
OVCAR-8 [23] = experiment: Cell cycle arrest in human OVCAR8 cells assessed as accumulation at G0/G1 phase at 2.5 uM incubated for 24 hrs by propidium iodide staining based flow cytometry (reference value: 67.06 +/- 1.42%); type: functional
OVCAR-8 [24] = experiment: Cell cycle arrest in human OVCAR8 cells assessed as accumulation at G2/M phase at 2.5 uM in presence of PTX incubated for 24 hrs by propidium iodide staining based flow cytometry (reference value: 25.78 +/- 0.71%); type: functional
MCF7 = experiment: Cell cycle arrest in human MCF7 cells assessed as increase in accumulation at G2/M phase at 8 uM incubated for 24 hrs by propidium iodide staining based flow cytometry relative to control; type: functional
OVCAR-8 [25] = experiment: Cell cycle arrest in human OVCAR8 cells assessed as accumulation at G0/G1 phase at 2.5 uM in presence of PTX incubated for 24 hrs by propidium iodide staining based flow cytometry (reference value: 67.06 +/- 1.42%); type: functional
OVCAR-8 [26] = experiment: Induction of apoptosis in human OVCAR8 cells assessed as chromatin condensation at 20 to 40 uM incubated for 48 hrs by hematoxylin and eosin staining based […] analysis; type: functional, cell-based
Lytechinus variegatus [27] = experiment: Antimitotic activity against sea urchin eggs assessed as inhibition of egg development at blastulation stage; type: functional, organism-based
OVCAR-8 [28] = experiment: Cytotoxicity against human OVCAR8 cells assessed as reduction in cell viability measured upto 98 hrs by xcCELLigence RTCA analysis; type: functional, cell-based
Lytechinus variegatus [29] = experiment: Antimitotic activity against sea urchin eggs assessed as inhibition of development at second cleavage; type: functional, organism-based
OVCAR-8 [30] = experiment: Cell cycle arrest in human OVCAR8 cells assessed as accumulation at G2/M phase at 2.5 uM incubated for 24 hrs by propidium iodide staining based flow cytometry (reference value: 25.78 +/- 0.71%); type: functional
OVCAR-8 [31] = experiment: Cell cycle arrest in human OVCAR8 cells assessed as accumulation at S phase at 2.5 uM in presence of PTX incubated for 24 hrs by propidium iodide staining based flow cytometry (reference value: 7.1 +/- 0.86%); type: functional
OVCAR-8 [32] = experiment: Induction of apoptosis in human OVCAR8 cells assessed as reduction in cell viability at 0.6 uM incubated for 48 hrs by acridine orange and ethidium bromide dye based fluorescence microscopy analysis; type: functional
OVCAR-8 [33] = experiment: Induction of apoptosis in human OVCAR8 cells assessed as increase in apoptotic cells at 0.6 uM incubated for 48 hrs by acridine orange and ethidium bromide dye based fluorescence microscopy analysis; type: functional, cell-based

## COc1ccc2c(c1)O[C@H]1c3cc(OC)c(OC)cc3OC[C@@H]21
HL-60
  IC50: 82800 nM
OVCAR-8 [1]
  IC50: 82800 nM
HCT-116
  IC50: 38500 nM
SF-295
  IC50: 32800 nM

## COc1ccc2c(c1)OC1c3cc(OC)c(OC)cc3OCC21 (racemic)
OVCAR-8 [2]
  Activity: 37.16%
OVCAR-8 [3]
  Activity: inactive
HL-60
  IC50: 760 nM
OVCAR-8 [1]
  IC50: 5930 nM
OVCAR-8 [4]
  Activity: 42.06%
HCT-116
  IC50: 11400 nM
SF-295
  IC50: 14000 nM
OVCAR-8 [5]
  Activity: 10.93%
OVCAR-8 [6]
  Activity: 10.02%
OVCAR-8 [7]
  Activity: 52.61%
OVCAR-8 [8]
  Activity: 46.72%

## CC(=O)O[C@H]1C(=O)[C@@]2(C)[C@H]([C@H](OC(=O)c3ccccc3)[C@]3(O)C[C@H](OC(=O)[C@H](O)[C@@H](NC(=O)c4ccccc4)c4ccccc4)C(C)=C1C3(C)C)[C@]1(OC(C)=O)CO[C@@H]1C[C@@H]2O [PACLITAXEL]
OVCAR-8 [9]
  Activity: Active
OVCAR-8 [10]
  Activity: 49.97%
OVCAR-8 [11]
  Activity: 15.72%
OVCAR-8 [12]
  Activity: 34.28%
OVCAR-8 [13]
  Activity: Active
OVCAR-8 [14]
  Activity: Active
OVCAR-8 [15]
  Activity: Active
OVCAR-8 [16]
  Activity: Active
OVCAR-8 [17]
  Activity: Active

## COc1ccc2c(c1)O[C@@H]1c3cc(OC)c(OC)cc3OC[C@H]21
Lytechinus variegatus [18]
  IC50: 7.94 nM
OVCAR-8 [19]
  Activity: 9.1%
OVCAR-8 [2]
  Activity: 75.24%
[20]
  viability at 72 h, 10 ug/ml: 81%
OVCAR-8 [21]
  Activity: Dose-dependent effect
OVCAR-8 [22]
  Activity: Dose-dependent effect
OVCAR-8 [23]
  Activity: 58.16%
OVCAR-8 [24]
  Activity: 78.62%
MCF7
  Activity: 32%
HL-60
  IC50: 200 nM
OVCAR-8 [25]
  Activity: 10.98%
OVCAR-8 [26]
  Activity: Active
OVCAR-8 [1]
  IC50: 1790 nM
Lytechinus variegatus [27]
  IC50: 10.7 nM
OVCAR-8 [28]
  Activity: Dose-dependent effect
OVCAR-8 [4]
  Activity: 79.13%
HCT-116
  IC50: 2420 nM
SF-295
  IC50: 3610 nM
OVCAR-8 [5]
  Activity: 9.92%
OVCAR-8 [6]
  Activity: 8.76%
Lytechinus variegatus [29]
  IC50: 12.3 nM
OVCAR-8 [30]
  Activity: 32.71%
OVCAR-8 [31]
  Activity: 10.39%
OVCAR-8 [7]
  Activity: 15.83%
OVCAR-8 [8]
  Activity: 10.84%

## COc1cccc2c1C(=O)c1c(O)c3c(c(O)c1C2=O)C[C@@](O)(C(=O)CO)C[C@@H]3O[C@H]1C[C@H](N)[C@H](O)[C@H](C)O1 [DOXORUBICIN]
HL-60
  IC50: 40 nM
OVCAR-8 [32]
  Activity: Active
SF-295
  IC50: 80 nM
OVCAR-8 [33]
  Activity: Active

Reference: ChEMBL document CHEMBL4616708, “Antitumor Potential of the Isoflavonoids (+)- and (-)-2,3,9-Trimethoxypterocarpan: Mechanism-of-Action Studies” (ACS Med Chem Lett, 2020)
